The target in test [1] is T1, Putative P2Y purinoceptor 10 (Homo sapiens, UniProt O00398). Briefly: Agonist activity at wildtype N-terminal FLAG-tagged human LPS2/P2Y10 transfected in HEK293-A cells co-transfected with AP-TGFalpha assessed as AP-TGFalpha release by TGFalpha shedding assay relative to LysoPS. Format: functional, cell-based. The conditions noted are these: filed as agonist.
In test [2] the target is Putative P2Y purinoceptor 10 (Homo sapiens, UniProt O00398, A163F). Briefly: Agonist activity at N-terminal FLAG-tagged human LPS2/P2Y10 A163F mutant transfected in HEK293-A cells co-transfected with AP-TGFalpha assessed as AP-TGFalpha release by TGFalpha shedding assay. It is filed as cell-based.
Sequence of Putative P2Y purinoceptor 10 (Homo sapiens, UniProt O00398, A163F) (O00398 whole entry A163F): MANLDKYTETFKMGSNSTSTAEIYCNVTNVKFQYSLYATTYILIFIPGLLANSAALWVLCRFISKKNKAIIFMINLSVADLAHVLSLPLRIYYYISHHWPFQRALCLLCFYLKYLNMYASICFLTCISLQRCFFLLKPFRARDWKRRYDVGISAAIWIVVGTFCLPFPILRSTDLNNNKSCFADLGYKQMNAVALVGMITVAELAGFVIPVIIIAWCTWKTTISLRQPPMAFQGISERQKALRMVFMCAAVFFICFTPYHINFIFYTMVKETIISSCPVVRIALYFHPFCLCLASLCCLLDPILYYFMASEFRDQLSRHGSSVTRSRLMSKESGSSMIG
The target in test [3] is T1, Putative P2Y purinoceptor 10. Briefly: Agonist activity at wildtype N-terminal FLAG-tagged human LPS2/P2Y10 transfected in HEK293-A cells co-transfected with AP-TGFalpha assessed as AP-TGFalpha release by TGFalpha shedding assay. It is filed as functional, cell-based.
In test [4] the target is Putative P2Y purinoceptor 10 (Mus musculus, UniProt Q8BFU7). Briefly: Agonist activity at mouse LPS2/P2Y10 transfected in HEK293-A cells co-transfected with AP-TGFalpha assessed as AP-TGFalpha release by TGFalpha shedding assay. The conditions noted are these: for pEC50: read-out: EC50. Format: functional, cell-based.
Sequence of Putative P2Y purinoceptor 10 (Mus musculus, UniProt Q8BFU7) (Q8BFU7 whole entry): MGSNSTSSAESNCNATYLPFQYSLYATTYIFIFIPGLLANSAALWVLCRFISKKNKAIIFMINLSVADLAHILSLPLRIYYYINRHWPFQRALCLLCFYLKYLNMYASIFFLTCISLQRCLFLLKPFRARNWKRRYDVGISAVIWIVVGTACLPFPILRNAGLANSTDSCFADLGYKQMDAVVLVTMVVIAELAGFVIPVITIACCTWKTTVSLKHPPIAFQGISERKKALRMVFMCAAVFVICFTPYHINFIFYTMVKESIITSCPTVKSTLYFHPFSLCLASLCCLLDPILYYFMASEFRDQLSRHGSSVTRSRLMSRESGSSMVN
Test [5] deals with Putative P2Y purinoceptor 10 (Homo sapiens), O00398 [A163F]. Briefly: Agonist activity at N-terminal FLAG-tagged human LPS2/P2Y10 A163F mutant transfected in HEK293-A cells co-transfected with AP-TGFalpha assessed as AP-TGFalpha release by TGFalpha shedding assay relative to LysoPS. It is filed as cell-based. Particulars: filed as agonist.
Sequence of Putative P2Y purinoceptor 10 (Homo sapiens), O00398 [A163F] (O00398 whole entry A163F): as the sequence (O00398 whole entry A163F) above
In test [6] the target is Putative P2Y purinoceptor 10 (Homo sapiens, UniProt O00398, V159F). Briefly: Agonist activity at N-terminal FLAG-tagged human LPS2/P2Y10 V159F mutant transfected in HEK293-A cells co-transfected with AP-TGFalpha assessed as AP-TGFalpha release by TGFalpha shedding assay. It is filed as cell-based.
Sequence of Putative P2Y purinoceptor 10 (Homo sapiens, UniProt O00398, V159F) (O00398 whole entry V159F): as the sequence (O00398 whole entry A163F) above, with V159F, F163A counted along it
In test [7] the test system is Putative P2Y purinoceptor 10 (Homo sapiens), O00398 [V159F]. Briefly: Agonist activity at N-terminal FLAG-tagged human LPS2/P2Y10 V159F mutant transfected in HEK293-A cells co-transfected with AP-TGFalpha assessed as AP-TGFalpha release by TGFalpha shedding assay relative to LysoPS. Format: cell-based. Particulars: filed as agonist.
Sequence of Putative P2Y purinoceptor 10 (Homo sapiens), O00398 [V159F] (O00398 whole entry V159F): as the sequence (O00398 whole entry A163F) above, with V159F, F163A counted along it
The target in test [8] is Putative P2Y purinoceptor 10 (Mus musculus) (UniProt Q8BFU7). Nature of the test: Agonist activity at mouse LPS2/P2Y10 transfected in HEK293-A cells co-transfected with AP-TGFalpha assessed as AP-TGFalpha release by TGFalpha shedding assay relative to LysoPS. Format: functional, cell-based. The conditions noted are these: filed as agonist.
Sequence of Putative P2Y purinoceptor 10 (Mus musculus) (Q8BFU7 whole entry): as the sequence (Q8BFU7 whole entry) above
Test [9] relates to McA-RH7777. Briefly: Induction of actin stress fiber formation in rat McA-RH7777 cells expressing mouse LPS2 at 0.001 to 1 uM incubated for 30 mins by Alexa594-labelled phalloidin staining based fluorescence microscopic analysis. It is filed as functional, cell-based. The conditions noted are these: dose 0.001-1 µM.
In test [10] the target is Probable G-protein coupled receptor 34 (Mus musculus) (UniProt Q9R1K6). Nature of the test: Agonist activity at mouse LPS1/GPR34 transfected in HEK293-A cells co-transfected with AP-TGFalpha assessed as AP-TGFalpha release by TGFalpha shedding assay relative to LysoPS. Format: functional, cell-based. Particulars: filed as agonist.
Sequence of Probable G-protein coupled receptor 34 (Mus musculus) (Q9R1K6 whole entry): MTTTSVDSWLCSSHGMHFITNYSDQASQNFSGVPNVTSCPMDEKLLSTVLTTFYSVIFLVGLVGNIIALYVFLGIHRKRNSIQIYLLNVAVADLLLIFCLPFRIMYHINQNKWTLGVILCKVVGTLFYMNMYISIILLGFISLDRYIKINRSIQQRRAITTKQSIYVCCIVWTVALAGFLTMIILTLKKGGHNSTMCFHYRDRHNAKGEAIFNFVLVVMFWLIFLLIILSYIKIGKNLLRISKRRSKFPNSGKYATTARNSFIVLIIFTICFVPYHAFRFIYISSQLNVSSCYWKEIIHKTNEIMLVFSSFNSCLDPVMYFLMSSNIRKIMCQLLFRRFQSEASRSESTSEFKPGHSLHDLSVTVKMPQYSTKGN
Test [11] concerns the target Probable G-protein coupled receptor 34 (Mus musculus, UniProt Q9R1K6). Nature of the test: Agonist activity at mouse LPS1/GPR34 transfected in HEK293-A cells co-transfected with AP-TGFalpha assessed as AP-TGFalpha release by TGFalpha shedding assay. Format: functional, cell-based.
Test [12] relates to McA-RH7777. Nature of the test: Induction of actin stress fiber formation in rat McA-RH7777 cells expressing mouse LPS2 at 1 uM incubated for 30 mins by Alexa594-labelled phalloidin staining based fluorescence microscopic analysis. Format: functional, cell-based.
Test [13] has as its target T1, Putative P2Y purinoceptor 10. Nature of the test: Agonist activity at human LPS2/P2Y10 transfected in HEK293-A cells co-transfected with AP-TGFalpha assessed as AP-TGFalpha release by TGFalpha shedding assay. Format: functional, cell-based. The conditions noted are these: read-out: EC50.
Test [14] shares this target. Briefly: Agonist activity at human LPS2/P2Y10 transfected in HEK293-A cells co-transfected with AP-TGFalpha assessed as AP-TGFalpha release by TGFalpha shedding assay relative to LysopPS. It is filed as functional, cell-based. Particulars: filed as agonist.
For test [15], the system named is McA-RH7777. Briefly: Induction of actin stress fiber formation in rat McA-RH7777 cells expressing mouse LPS2 at 1 nM incubated for 30 mins by Alexa594-labelled phalloidin staining based fluorescence microscopic analysis. Format: functional, cell-based.

pEC50: −log10 of the molar value. Calls of active or inactive are those of the source. The calls are words filed in the database; no cut-off is given here.

In general, Emax refers to the size of the effect at its maximum, as opposed to the concentration needed. As a reminder, the pEC50 is the negative decadic logarithm of the EC50, by convention in mol/L.

T1 sequence (O00398 whole entry): as the sequence (O00398 whole entry A163F) above, with F163A counted along it
Sequence of Probable G-protein coupled receptor 34 (Q9R1K6 whole entry): as the sequence (Q9R1K6 whole entry) above

Take `CC(C)(C)c1ccc(Oc2ccccc2CCC(=O)OCCCOP(=O)(O)OC[C@H](N)C(=O)O)cc1`: the Emax in test [1] was 119%; in test [5], 113%; in test [7] it was 131%; in [8], 123%. For the same compound, the pEC50 was 6.33 in [2], 6.74 in test [3], 7.17 in test [4] and 6.60 in [6].
Turning to `N[C@@H](COP(=O)(O)OCCCOC(=O)CCc1ccccc1Oc1ccc(-c2ccc(C(=O)O)cc2)cc1)C(=O)O`, the result in the test with McA-RH7777 [9] was inactive. Moreover, the pEC50 in [4] is 6.77. Besides, the Emax in [8] came out at 100%.
In the case of `N[C@@H](COP(=O)(O)OC1CCCO[C@@H]1COC(=O)CCc1ccccc1OCc1cccc(Oc2ccccc2)c1)C(=O)O` (stereo partly specified), in test [10], the Emax is 117%. The pEC50 in [11] was 6.74.
In the case of `CCCCCCCC/C=C\CCCCCCCC(=O)OC[C@@H](O)COP(=O)(O)OC[C@H](N)C(=O)O`, in test [4], the pEC50 was 7.68. For the same compound, the outcome in the test on McA-RH7777 [12] was Active.
Turning to `CC(C)(C)c1ccc(-c2cccc(COc3ccccc3CCC(=O)OCCCOP(=O)(O)OC[C@H](N)C(=O)O)c2)cc1`, the figures for the Emax in test [10] and in [8] were 107% and 99%, respectively. Further, the figures for the pEC50 in test [11] and in [4] were 6.02 and 7.46, respectively.
In the case of `Cc1ccc(Oc2ccccc2CCC(=O)OCCCOP(=O)(O)OC[C@H](N)C(=O)O)cc1`, the Emax was found to be 114% in test [1], 92% in test [5], 117% in [7] and 88% in test [8]. In addition, the negative-log EC50 (pEC50) was 6.46 in test [2], 6.09 in test [3], 6.85 in test [4] and 6.18 in test [6].
With `CCCCCCCCCCCOc1ccccc1CCC(=O)OCCCOP(=O)(O)OC[C@H](N)C(N)=O`, the Emax in test [10] was determined as 94%; in test [8], 111%. For the same compound, the pEC50 is 5.80 in test [11] and 8.57 in test [4].
For `N[C@@H](COP(=O)(O)OCCCOC(=O)CCc1ccccc1Oc1ccc(-c2cc(-c3ccccc3)cc(-c3ccccc3)c2)cc1)C(=O)O`, the figures for the pEC50 in test [13] and in test [4] were 8.21 and 8.72, respectively. Moreover, the Emax came to 112% in [14] and 83% in test [8]. The result with McA-RH7777 [15] was Active.
For `N[C@@H](COP(=O)(O)OCCCOC(=O)CCc1ccccc1Oc1ccc(-c2ccccc2)cc1)C(=O)O`, the Emax is 125% in test [1]; 133% in test [14]; 122% in test [5]; 131% in [7]; 111% in test [8]. Besides, the pEC50 in [13] is 7.15; in test [2], 7.48; in [3], 7.28; in test [4], 8.04; in test [6] it was 7.59.
`N[C@@H](COP(=O)(O)OCCCOC(=O)CCc1ccccc1Oc1ccccc1)C(=O)O`: the pEC50 in test [2] was 5.80; in [3], less than 5.52; in test [4], 6.40; in test [6], 5.82. In addition, the Emax in test [5] was determined as 104%; in [7], 98%; in [8], 93%.
On to `N[C@@H](COP(=O)(O)OCCCOC(=O)CCc1ccccc1OCc1cccc(Oc2ccccc2)c1)C(=O)O`, for which the figures for the Emax in [10] and in test [8] were 124% and 63%, respectively. In addition, the figures for the pEC50 in [11] (hek293-a) and in test [4] were 6.66 and 7.05, respectively. The EC50 in test [4] (read-out: pEC50 (converted)) is 93.3 nM.
In the case of `N[C@@H](COP(=O)(O)OCCCOC(=O)CCc1ccccc1Oc1ccc(C23C[C@H]4C[C@@H](C2)C[C@@H](C3)C4)cc1)C(=O)O`, the Emax amounted to 120% in test [1], 137% in test [5], 128% in test [7] and 107% in test [8]. The pEC50 in test [2] was 6.41; in test [3], 6.77; in test [4] it was 7.24; in [6], 6.57.
Take `N[C@@H](COP(=O)(O)OCCCOC(=O)CCc1ccccc1Oc1ccc(-c2cccc(-c3ccccc3)c2)cc1)C(=O)O`: the results for the pEC50 in [13] and in test [4] were 7.66 and 9.00, respectively. The results for the Emax in [14] and in test [8] were 125% and 113%, respectively. Besides, the result in the test on McA-RH7777 [15] was Active.

For the origin of these results see ChEMBL document CHEMBL5360551, “Exploration of LPS2 agonist binding modes using the combination of a new hydrophobic scaffold and homology modeling” (Eur J Med Chem, 2023).
